According to publication PMC12052742, “Engineering a newly identified alcohol dehydrogenase from Sphingobium Sp. for efficient utilization of nicotinamide cofactors biomimetics” (Bioresources and Bioprocessing, 2025):

Columns and labels:
SpADH2 variant A290I [1] = test: Cofactor kinetic assay, A290I; format: biochemical, Sphingobium sp. SYK-6
Procedure: (§1) Specific activity of SpADH2 in substrate spectrum study was measured spectrophotometrically. PBS (pH 7.5) buffer was pre-heated at 30°C for 15 min. For NAD^+, 0.05 µg SpADH2 was added to the PBS buffer (100 µL), and a final concentration of 2 mM NAD^+ was added. For tsNCBs cofactor p-BANA^+, 5 µg SpADH2 and a final concentration of 7.5 mM p-BANA^+ was added. The mixture was carried out in a 96-well microplate, and a final concentration of 5 mM substrate was added to start the reaction. The microplate was incubated in 30°C for 1 h. Florescent probes (2-[2-(1,4-dihydro-1-methyl-3-quinolinyl)ethenyl]-1,3,3-trimethyl-3H-indolium) in a final concentration of 0.2 mM (100 µL) was added (Scheme S1), and the microplate was placed in a microplate reader immediately for measurement under 537 nm (Fomin et al. [2016]).
(§2) Kinetic analysis of SpADH2 and its variants were carried out following Michaelis-Menten equation or Michaelis-Menten excess substrate inhibition equation. For of the substrate kinetic assays, concentrations of cofactors were fixed at 5 mM for NAD^+ and 7.5 mM for p-BANA^+. For cofactor kinetic assays, the concentration of 1a was fixed at 5 mM.
(§3) Specific activity was determined spectrophotometrically as above except that gradient 1a (0−20 mM) or cofactor (0−35 mM) concentrations were applied.
(§4) Cofactor specificity ratio (CSR) represents the ratio of catalytic efficiency of p-BANA^+ to NAD^+ for each enzyme, and relative specificity (RS) stands for the CSR ratio of variants to WT (King et al. [2020]).

SpADH2 variant A290I [2] = test: Activity of variant in oxidation of syringyl alcohol with p-BANA^+ (Fig. 5), A290I; format: biochemical, Sphingobium sp. SYK-6; conditions: cofactor p-BANA^+, substrate syringyl alcohol
Procedure: (§5) In the first round of screening, saturation mutagenesis was constructed for six positions (W114, T177, G172, G316, A47, and R227). […] Therefore, in the second round of mutagenesis, six additional sites within the 5 Å range of the cofactor ribose (H43, V202, T265, V288, G289, and A290) were selected for saturation mutagenesis screening (Fig. 6c and Fig. S6). Three beneficial mutations were identified. […] Subsequently, combinatorial mutagenesis was performed, resulting in 11 double variants and 3 triple variants.
(§6) Fig. 5 Relative activity of SpADH2 and its variants in oxidation of syringyl alcohol when utilizing p-BANA^+ as cofactor
(§7) In preliminary screening by spectrophotometric analysis, PBS (pH 7.5) buffer (50 µL) in a 96-well plate was pre-warmed at 30°C for 15 min, and a final concentration of 5 mM p-BANA^+ and 1 mM substrate syringyl alcohol were added, and 50 µL of crude enzyme were add to each well to start the reaction, with WT as control. The reaction mixture was incubated at 30°C for 1 h, followed by addition of fluorescent probes in a final concentration of 0.2 mM, and was subjected to determination under 537 nm as described above.

SpADH2 variant H43L = test: Substrate kinetic assay, H43L; format: biochemical, Sphingobium sp. SYK-6
Procedure: as §1, §2, §3, §4

[3] = system: SpADH2 variant H43L/A290I; test: Activity of variant in oxidation of syringyl alcohol with p-BANA^+ (Fig. 5), H43L/A290I; format: biochemical, Sphingobium sp. SYK-6; conditions: cofactor p-BANA^+
Procedure: as §5, §6, §7

SpADH2 variant A290I [4] = test: Substrate kinetic assay, A290I; format: biochemical, Sphingobium sp. SYK-6
Procedure: as §1, §2, §3, §4

SpADH2 variant A290I [5] = test: Cofactor spectrum (HPLC specific activity), variant A290I; format: biochemical, Sphingobium sp. SYK-6; conditions: 1a 5 mM, cofactor 7.5 mM, pH 7.5, 30℃, 5 µg enzyme, 1 h
Procedure: Fig. 8 Cofactor spectrums of SpADH2 and its variants. The darkness of color for each cofactor stands for the activity. For each cofactor cube, top left: WT, top right: H43L, bottom left: A290I, bottom right: H43L/A290I. (a) Natural cofactors and NMN^+ are shown in purple. (b) tsNCBs are shown in cyan. The evaluation of cofactor spectrum was carried out under following conditions: 50 mM PBS buffer (pH 7.5) and 30℃, with 1a (5 mM) as substrate and different cofactors (7.5 mM) as cofactor. For NAD(P)^+ and NMN^+, 0.05 µg enzyme was added, and for tsNCBs, 5 µg enzyme was added. The results were analyzed by HPLC after 1 h reaction
(§8) Specific activity of SpADH2 in cofactor spectrum study was determined by HPLC analysis. PBS (pH 7.5) buffer was pre-heated at 30°C for 15 min. For NAD(P)^+ and NMN^+, 0.05 µg SpADH2 was added to PBS buffer (100 µL). For tsNCBs, 5 µg SpADH2 was added. A final concentration of 7.5 mM cofactor was added to the reaction mixture. Finally, a final concentration of 5 mM substrate was added to start the reaction. The reactions were conducted at 30°C.
(§9) One unit of enzyme activity is defined as the amount of enzyme required to form 1 µmol 1b per minute at pH 7.5 and 30°C. Same reaction without cofactor was used as a blank control.

SpADH2 WT = SpADH2 WT (Sphingobium sp. SYK-6, UniProt G2IIZ8); test: Substrate kinetic assay, WT; format: biochemical
Chain of SpADH2 WT (G2IIZ8 1-372): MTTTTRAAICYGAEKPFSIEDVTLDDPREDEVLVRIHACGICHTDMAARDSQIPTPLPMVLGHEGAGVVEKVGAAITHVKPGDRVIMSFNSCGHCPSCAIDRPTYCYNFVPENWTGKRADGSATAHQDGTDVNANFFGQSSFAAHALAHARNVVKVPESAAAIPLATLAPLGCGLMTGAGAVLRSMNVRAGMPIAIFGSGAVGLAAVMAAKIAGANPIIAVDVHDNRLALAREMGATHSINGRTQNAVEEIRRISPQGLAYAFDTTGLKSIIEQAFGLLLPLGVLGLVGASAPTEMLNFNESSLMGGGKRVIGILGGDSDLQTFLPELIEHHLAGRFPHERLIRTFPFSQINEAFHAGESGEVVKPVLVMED
Procedure: as §1, §2, §3, §4

SpADH2 = test: Cofactor spectrum of syringyl alcohol oxidation (HPLC specific activity), WT; format: biochemical, Sphingobium sp. SYK-6
Procedure: Fig. 2 Cofactor spectrum of syringyl alcohol oxidation catalyzed by SpADH2. The darkness of the background color for each cofactor stands for the activity of SpADH2 utilizing various cofactors. (a) NAD(P) ^+ and NMN^+ are shown in purple background. (b) tsNCBs are shown in cyan background. The evaluation of cofactor spectrum of SpADH2 was carried out under following conditions: 50 mM PBS buffer (pH 7.5) and 30℃, with 1a (5 mM) as substrate and different cofactors (7.5 mM) as cofactor. For NAD(P)^+ and NMN^+, 0.05 µg SpADH2 was added, and for tsNCBs, 5 µg SpADH2 was added. The results were analyzed by HPLC after 1 h reaction
as §8, §9

[6] = cofactor kinetics, cofactor = label
[7] = 1a varied, cofactor (= label) fixed: 5 mM NAD^+ or 7.5 mM p-BANA^+
[8] = substrate kinetics, cofactor = label

NC(=O)c1ccc[n+](Cc2ccc(C(=O)O)cc2)c1 [p-BANA^+, para-3-carbamoyl-1-(4-carboxybenzyl)pyridin-1-ium]
kcat (SpADH2 variant A290I [1]; cofactor (= label) varied, 1a fixed at 5 mM): 13 ± 2.5 min^− 1 | Km (SpADH2 variant A290I [1]; cofactor (= label) varied, 1a fixed at 5 mM, pH 7.5, 30°C): 14 ± 3.8 mM | Ki (SpADH2 variant A290I [1]; cofactor (= label) varied, 1a fixed at 5 mM, read-out: Ki (cofactor inhibition)): 18 ± 5.8 mM | Cofactor specificity ratio (catalytic efficiency of p-BANA^+ to NAD^+) (SpADH2 variant A290I [1]; cofactor kinetics): 2.96×10^-4 | Relative specificity (CSR ratio of variant to WT) (SpADH2 variant A290I [1]; cofactor kinetics): 7.77 | fold higher catalytic efficiency (kcat/Km) than WT (SpADH2 variant A290I [1]; [6]): 10 fold | fold increase in kcat value vs WT (SpADH2 variant A290I [1]; [6]): 7.9 fold | fold increase in activity vs WT (SpADH2 variant A290I [2]): 10 fold | kcat (SpADH2 variant H43L; [7]): 2.5 ± 0.9 min^− 1 | Cofactor specificity ratio (catalytic efficiency of p-BANA^+ to NAD^+) (SpADH2 variant H43L; substrate kinetics): 9.30×10^-4 | Relative specificity (CSR ratio of variant to WT) (SpADH2 variant H43L; substrate kinetics): 61.2 | fold increase in kcat vs WT (SpADH2 variant H43L; [8]): 2 fold | fold higher activity than WT ([3]; substrate syringyl alcohol): 7 fold | activity ([3]; substrate syringyl alcohol (Fig. 5)): 70 U/g | kcat (SpADH2 variant A290I [4]; [7]): 11 ± 4.1 min^− 1 | Cofactor specificity ratio (catalytic efficiency of p-BANA^+ to NAD^+) (SpADH2 variant A290I [4]; substrate kinetics): 2.95×10^-4 | Relative specificity (CSR ratio of variant to WT) (SpADH2 variant A290I [4]; substrate kinetics): 19.4 | fold increase in kcat vs WT (SpADH2 variant A290I [4]; [8]): 10 fold | catalytic activity with the tsNCB as cofactor (SpADH2 variant A290I [5]): 160.82 U/g | kcat (SpADH2 WT; [7]): 1.1 ± 0.3 min^− 1 | Cofactor specificity ratio (catalytic efficiency of p-BANA^+ to NAD^+) (SpADH2 WT; substrate kinetics): 1.52×10^-5 | activity of SpADH2 with the tsNCB as cofactor (SpADH2; 1a 5 mM, cofactor 7.5 mM, pH 7.5, 30℃, 5 µg SpADH2, 1 h): 11.55 U/g | fold increasement of activity compared with preliminary assay (SpADH2; optimized conditions vs preliminary assay): 7.1 fold
